We go through three molecules from patent US20210179686A1, “CELL SORTING SYSTEMS AND METHODS OF USE” (MEMORIAL SLOAN-KETTERING CANCER CENTER, priority 2018, published 2021).

One test relates to FLAG-RR12EE345L. As to the kind of experiment: capture and presentation of secreted FLAG leucine zipper by mutant blocking leucine zippers in C1498 cells. It counts as cell-based. To be noted: FIG. 20. From the text: A series of mutations were made in the “g” residues of the blocking leucine zipper to reduce heterodimerization affinity between the capture leucine zipper and the linked blocking leucine zipper. The following six mutants were made: 1N mutant: E1R2EE345L (having the amino acid sequence set forth in SEQ ID NO: 98), 1M mutant: RR123E45L (having the amino acid sequence set forth in SEQ ID NO: 99), 2N mutant: EE12345L (having the amino acid sequence set forth in SEQ ID NO: 102), 2M mutant: RR1234E5L (having the amino acid sequence set forth in SEQ ID NO: 103), 3N mutant: EE12R3E45L (having the amino acid sequence set forth in SEQ ID NO: 106), and 3C mutant: RR12345L (having the amino acid sequence set forth in SEQ ID NO: 107).
C1498 cells were co-transduced with the FLAG-RR12EE345L GFP vector and one of the six mutants as part of RR12EE345L linker EE12RR345L BFP vector constructs. […] Thus, mutating the […] leucine zipper at “g” position residues to include repulsive amino acid interactions can reduce the degree of blocking by the linked […]-based mutant leucine zipper.

The next test addresses T1, iCaspase 9 (Homo sapiens, UniProt P55211, Q221R).
T1 construct: […]; expressed in transfected cells
As to the kind of experiment: activation of iCaspase 9 suicide gene by chemical inducer of dimerization in sorted dual-transduced T cells. It counts as cell-based, mouse. How it is done: FIG. 5 depicts purification and testing of dual-transduced cells with iCaspase 9 and CD20-CAR. T cells comprising RR12EE345L-FLAG iCaspase 9 (vector 1) and RR12EE345L-linker-EE12RR345L-Thy1.1 CD20-CAR (vector 2) were incubated with EL4-CD19 and EL4-CD20 targets in the presence or absence of chemical inducer of dimerization (CID).
IL-18 secretion was assessed by ELISA. Interferon gamma secretion was assessed by cytometric bead array.

The next test relates to CD20 mimotope. Description: antibody plus complement depletion of double transduced C1498 cells. It counts as cell-based. To be noted: RQR-RR12EE345L plus capture leucine zipper, in the presence of complement, FIG. 18. How it is done:
Next, C1498 cells were double transduced with capture leucine zippers as shown in FIG. 18 and a second vector encoding the tandem CD20 mimotope/CD34 leucine zipper tag (RQR-RR12EE345L). Subsequently, the cells were incubated with anti-CD20 antibody Rituximab or irrelevant antibody Cetuximab in the presence of complement.

T1 sequence (P55211 with tags, fused parts or gaps Q221R): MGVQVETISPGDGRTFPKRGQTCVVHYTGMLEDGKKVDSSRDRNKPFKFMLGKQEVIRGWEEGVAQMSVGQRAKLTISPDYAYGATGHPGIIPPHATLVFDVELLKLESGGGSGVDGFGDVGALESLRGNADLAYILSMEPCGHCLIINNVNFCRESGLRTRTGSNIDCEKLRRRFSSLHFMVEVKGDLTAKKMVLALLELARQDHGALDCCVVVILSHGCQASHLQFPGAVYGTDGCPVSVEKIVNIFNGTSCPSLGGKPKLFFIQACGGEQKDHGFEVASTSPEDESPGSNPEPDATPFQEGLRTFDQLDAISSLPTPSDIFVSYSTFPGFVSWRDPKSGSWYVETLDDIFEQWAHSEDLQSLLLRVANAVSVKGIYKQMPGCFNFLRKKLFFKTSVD
FLAG-RR12EE345L, sequence (as listed by the source): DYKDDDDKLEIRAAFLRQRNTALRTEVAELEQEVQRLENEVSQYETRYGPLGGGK
CD20 mimotope, sequence (as listed by the source): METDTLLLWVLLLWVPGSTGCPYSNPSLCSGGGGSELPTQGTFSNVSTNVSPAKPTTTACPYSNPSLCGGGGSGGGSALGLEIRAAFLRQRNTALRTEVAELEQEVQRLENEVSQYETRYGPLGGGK

On to “3N mutant: blocking leucine zipper mutant, amino acid sequence SEQ ID NO: 106 (LEIEAAFLRQENTALRTRVAELEQEVQRLENEVSQYETRYGPLGGGK)”, for which the “presentation of secreted leucine zipper” value in the test with FLAG-RR12EE345L (C1498 cells co-transduced with FLAG-RR12EE345L GFP vector) is given as “enhanced presentation of secreted leucine zipper”. For the same molecule, in the test on FLAG-RR12EE345L (double transduced and single-transduced capture-zipper-only C1498 cells), the FLAG binding result is on record as “increased FLAG binding in double transduced cells (intracellular pairing), but also in single-transduced capture leucine zipper-only cells (extracellular pairing)”.

Consider `CC[C@H](C(=O)N1CCCC[C@H]1C(=O)O[C@H](CCc1ccc(OC)c(OC)c1)c1cccc(OCC(=O)NCC(CNC(=O)COc2cccc([C@@H](CCc3ccc(OC)c(OC)c3)OC(=O)[C@@H]3CCCCN3C(=O)[C@@H](CC)c3cc(OC)c(OC)c(OC)c3)c2)CN(C)C)c1)c1cc(OC)c(OC)c(OC)c1` [chemical inducer of dimerization], for which the “induction of T cell apoptosis” value at iCaspase 9 (T cells with iCaspase 9 on one vector and CD20-CAR on the other, FIG. 5) was over 90%. Besides, the cell death entry at iCaspase 9 (sorted cells with two vectors expressing CD19-CAR, CD20-CAR and iCaspase9, optionally IL-18, FIG. 6) is given as “about 90%”.

Consider Rituximab, for which the depletion of cells result with CD20 mimotope was “selective depletion of double transduced cells”.
